For test [1], the target named is T1, G6PD in lysate of human fibroblasts with the Mediterranean variant (Homo sapiens, UniProt P11413, S188F).
T1 construct: host or cells: subject-derived fibroblast cell line
As to the kind of experiment: G6PD activity in fibroblast lysate. The format is cell-based. As for the experimental part: Lymphocytes derived from a normal subject (HG 00866) and a G6PD-deficient subject carrying Canton variant in G6PD (HG 02367) were purchased from Coriell Institute and cultured in RPMI 1640 supplemented with 15% fetal bovine serum (FBS), 100 U/ml penicillin, and 100 μg/ml streptomycin. An SH-SY5Y neuroblastoma cell line was cultured in Dulbecco's Modification of Eagle's Medium/Ham's F-12 50/50 Mix supplemented with 10% FBS, 100 U/ml penicillin, and 100 μg/ml streptomycin. A G6PD-deficient subject-derived fibroblast cell line carrying Mediterranean variant and normal fibroblast cell line as control were purchased from Coriell Institute (GM 01152) and ThermoFisher Scientific (C0135C), respectively, and cultured in minimum essential medium supplemented with 15% FBS, 100 U/ml penicillin, and 100 μg/ml streptomycin. All the cell lines were maintained at 37° C. in a humidified incubator with an atmosphere of 5% of CO2 and 95% air.
Enzyme activity was measured by monitoring NADPH production, which was coupled with diaphorase converting resazurin to fluorescent resorufin (excitation at 565 nm and emission at 590 nm); fluorescent signal was thus proportional to G6PD activity. Assays were performed at 25° C. and run for 5 minutes in buffer containing 50 mM Tris (pH 7.4), 0.5 mM EDTA, 3.3 mM MgCl2, 1 U/ml diaphorase, 0.1 mM resazurin. […]

The next test concerns the target T2, Canton G6PD (Homo sapiens, UniProt P11413, R459L).
T2 construct: His (pET-28a) (N, cleaved yes); made in house; host or cells: E. coli C43 (DE3)
As to the kind of experiment: In vitro proteolysis assay with chymotrypsin. The conditions noted are these: in the presence of AG1, 25% in its absence. As for the experimental part: 200 ng of recombinant enzymes were incubated with 1 μL of 10 ng/μL chymotrypsin for 1 hour at room temperature. 100 μM of the compound was added to some reaction conditions. The following protein level was examined by Western blot.

The target in test [2] is T3, G6PD in human erythrocytes (Homo sapiens, UniProt P11413).
T3 construct: host or cells: human erythrocytes
T3 sequence (P11413 2-515 limits assumed): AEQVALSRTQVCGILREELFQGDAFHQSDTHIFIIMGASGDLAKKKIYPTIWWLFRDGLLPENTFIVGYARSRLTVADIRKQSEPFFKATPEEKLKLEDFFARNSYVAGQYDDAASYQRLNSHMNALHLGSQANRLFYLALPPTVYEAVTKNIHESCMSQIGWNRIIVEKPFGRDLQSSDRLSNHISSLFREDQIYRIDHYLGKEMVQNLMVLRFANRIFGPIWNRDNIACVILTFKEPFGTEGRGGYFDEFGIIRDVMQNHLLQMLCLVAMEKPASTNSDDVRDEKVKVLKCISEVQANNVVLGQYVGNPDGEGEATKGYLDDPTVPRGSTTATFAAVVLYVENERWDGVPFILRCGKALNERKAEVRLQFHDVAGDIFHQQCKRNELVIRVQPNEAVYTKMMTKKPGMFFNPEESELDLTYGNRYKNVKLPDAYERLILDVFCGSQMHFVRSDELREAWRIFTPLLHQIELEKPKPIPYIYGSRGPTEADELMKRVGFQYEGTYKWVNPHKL
As to the kind of experiment: G6PD activity in erythrocytes under oxidative stressors. The format is cell-based. The conditions noted are these: drug-induced oxidative stress. As for the experimental part:
(§1) De-identified blood samples were obtained from the Stanford Blood Center. Erythrocytes were collected by filtering the samples through a cellulose slurry to remove platelets and leukocytes and then washed with saline. G6PD activity was measured (Beutler E. Red cell metabolism: A manual of biochemical methods (3rd edition). Grune & Stratton (1984)). […] A 5% erythrocyte suspension was pre-incubated with 1-5 μM AG1 at 4° C. overnight, which was followed by treatment with (or without) either 1 mM chloroquine (CQ) or 1 mM diamide for 3-4 hours at 37° C. (for hemolysis assay with chloroquine, the mixture was incubated under light). Then centrifugation at 1,000 rpm for 5 minutes was followed. Hemoglobin release in the supernatant was monitored by measuring absorbance at 540 nm. […] After wash, the samples were lysed with 0.1% Triton X-100 (final concentration), and the florescence was analyzed with excitation/emission at 485/525 nm. GSH measurement was determined using a Cayman glutathione assay kit (Cayman Chemicals, 703002). […] The absorbance was read at 412 nm. For storage assay, a 5% erythrocyte suspension was stored at 4° C. with and without 1 μM AG1, and hemolysis and G6PD activity were monitored every week for 28 days to examine whether AG1 improves preservation of erythrocytes over time. Protein leakage was also examined by measuring the absorbance of the supernatant of samples at 280 nm. […]

For test [3], the system named is lymphocytes carrying the Canton variant. In words: Viability of lymphocytes. The conditions noted are these: treatment with AG1 for 24 hours. It counts as cell-based, human. As for the experimental part:
Cell viability was measured using a Cell-Counting Kit-8 (CCK-8, Dojindo), utilizing WST-8 [2-(2-methoxy-4-nitrophenyl)-3-(4-nitrophenyl)-5-(2,4-disulfophenyl)-2H-tetrazolium monosodium salt, according to the manufacturer's instructions. Cells were subjected to serum starvation for 48 hours before measurement. Cells in 100 μL of medium per well were treated with 10 μL of CCK-8 solution and incubated for 2 hours at 37° C. The absorbance was read at 450 nm. Viability of lymphocytes was measured by staining with a 0.4% solution of trypan blue in buffered isotonic salt solution (pH 7.2). The viability was calculated as the number of viable cells (non-stained by the dye) divided by the total number of cells within the grids on the hemacytometer. Cells were treated with 1 μM of the compound 24 hours before the measurement.

Test [4] concerns the target T4, Canton G6PD in SH-SY5Y cells (Homo sapiens, UniProt P11413, R459L).
T4 construct: expressed in transfected cells; host or cells: SH-SY5Y neuroblastoma cells
In words: G6PD activity of SH-SY5Y cells expressing Canton variant. It counts as cell-based. As for the experimental part:
Enzyme activity was measured by monitoring NADPH production, which was coupled with diaphorase converting resazurin to fluorescent resorufin (excitation at 565 nm and emission at 590 nm); fluorescent signal was thus proportional to G6PD activity. Assays were performed at 25° C. and run for 5 minutes in buffer containing 50 mM Tris (pH 7.4), 0.5 mM EDTA, 3.3 mM MgCl2, 1 U/ml diaphorase, 0.1 mM resazurin. 10 ng of recombinant enzymes or 10 μg of cell lysates was used for the assay with 10 μM NADP^+ (Sigma) as cofactor and 100 μM G6P (Sigma) as substrate. Steady-state kinetic parameters were obtained by varying concentrations of NADP^+ (0-10 μM) with a constant concentration of G6P (100 μM) and similarly for G6P (0-100 μM) with a constant concentration of NADP^+ (10 μM) with 10 ng of recombinant enzymes. Data analysis was performed using GraphPad Prism software v.6 (GraphPad Software, La Jolla, Calif. USA). Kinetic parameters were obtained by fitting the data to the Michaelis-Menten equation.
Prior to the cellular-based assays using SH-SH5Y cells, duration of overexpression of WT G6PD and Canton variant was examined by transfecting the cells seeded in a 12-well plate. The genes encoding human WT G6PD and Canton variant were first PCR-amplified, which was then inserted into pcDNA 3.1/myc-His C (ThermoFisher Scientific) using HindIII and XhoI. […]

For another test, the system named is human erythrocytes. In words: Erythrocyte refrigerated storage assay, protein leakage. It counts as cell-based. Particulars: AG1 1 μM. As for the experimental part: as §1

T4 sequence (P11413 2-515 R459L): as the sequence (P11413 2-515 limits assumed) above, with R458L counted along it
T2 sequence (P11413 whole entry R459L): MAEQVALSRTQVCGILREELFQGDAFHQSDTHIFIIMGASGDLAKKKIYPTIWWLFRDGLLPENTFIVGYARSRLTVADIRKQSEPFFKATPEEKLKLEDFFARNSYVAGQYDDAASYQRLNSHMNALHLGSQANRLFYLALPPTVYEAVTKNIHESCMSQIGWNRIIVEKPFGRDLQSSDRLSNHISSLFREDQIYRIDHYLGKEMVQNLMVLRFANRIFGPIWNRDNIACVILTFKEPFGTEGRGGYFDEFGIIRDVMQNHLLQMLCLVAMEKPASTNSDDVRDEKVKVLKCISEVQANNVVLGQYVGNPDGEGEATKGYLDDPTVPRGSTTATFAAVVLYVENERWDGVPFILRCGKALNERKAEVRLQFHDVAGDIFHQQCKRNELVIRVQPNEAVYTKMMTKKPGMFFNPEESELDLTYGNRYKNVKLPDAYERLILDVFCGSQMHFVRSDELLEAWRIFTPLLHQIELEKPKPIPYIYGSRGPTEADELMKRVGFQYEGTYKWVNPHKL
T1 sequence (P11413 2-515 S188F limits assumed): as the sequence (P11413 2-515 limits assumed) above, with S187F counted along it

Turning to `SCCNCCc1c[nH]c2ccccc12` [AG1, 2-[2-(1H-indol-3-yl)ethylamino]ethanethiol], in test [1], the “increase of G6PD activity in lysate” value is recorded as 50%. For the same compound, at Canton G6PD, the “protein remaining after proteolysis” value turned out to be 50%. In addition, the G6PD activity entry in test [2] is reported as “increased”; in test [4] it was “mild increase”. Moreover, the viability entry in test [3] was “improved”. Also, the protein leakage result with human erythrocytes is “decreased”.

For the origin of these results see US20200223826A1, “Glucose-6-Phosphate Dehydrogenase (G6PD)-Modulating Agents And Methods Of Treating G6PD Deficiency” (The Board of Trustees of the Leland Stanford Junior …, priority 2017, published 2020).
